Measurements reported in patent publication US8067447B2, “Modulators of glucocorticoid receptor, AP-1, and/or NF-κB activity and use thereof” (Bristol-Myers Squibb Company, priority 2006, dated 2011).
Like-named read-outs stand apart in the source and are kept apart here.

What was measured:
[1] = target: T1, human full-length glucocorticoid receptor (Homo sapiens, UniProt P04150); assay: Glucocorticoid Receptor Binding Assay (II), fluorescence polarization competitor kit (Fluormone GS1); conditions: cell lysate with recombinant human full-length GR, 1 nM Fluormone GS1, FP
T1 construct: a cell lysate containing recombinantly expressed human full-length glucocorticoid receptor; purchased PanVera Co., Madison, Wis; P2816
T1 sequence (P04150 1-777): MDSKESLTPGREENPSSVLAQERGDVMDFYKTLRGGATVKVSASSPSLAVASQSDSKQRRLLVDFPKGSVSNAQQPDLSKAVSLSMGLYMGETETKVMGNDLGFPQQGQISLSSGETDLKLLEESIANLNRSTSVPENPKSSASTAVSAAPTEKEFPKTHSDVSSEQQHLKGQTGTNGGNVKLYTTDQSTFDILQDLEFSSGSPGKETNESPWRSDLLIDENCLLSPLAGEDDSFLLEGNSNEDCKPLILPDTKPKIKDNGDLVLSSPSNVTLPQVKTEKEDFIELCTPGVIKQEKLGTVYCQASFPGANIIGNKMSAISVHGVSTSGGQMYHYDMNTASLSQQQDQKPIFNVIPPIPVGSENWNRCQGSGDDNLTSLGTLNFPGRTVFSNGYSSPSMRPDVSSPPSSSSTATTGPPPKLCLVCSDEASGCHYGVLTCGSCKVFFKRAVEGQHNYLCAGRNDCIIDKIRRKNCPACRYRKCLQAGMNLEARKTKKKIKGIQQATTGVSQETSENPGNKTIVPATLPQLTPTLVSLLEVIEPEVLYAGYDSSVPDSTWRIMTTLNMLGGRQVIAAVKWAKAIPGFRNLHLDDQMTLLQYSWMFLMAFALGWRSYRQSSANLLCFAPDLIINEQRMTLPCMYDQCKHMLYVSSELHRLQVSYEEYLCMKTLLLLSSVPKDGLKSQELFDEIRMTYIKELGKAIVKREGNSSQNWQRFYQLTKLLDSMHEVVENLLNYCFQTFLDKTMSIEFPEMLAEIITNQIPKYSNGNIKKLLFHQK
Method: In order to measure the binding of compounds on the glucocorticoid receptor a commercially available kit was used (Glucocorticoid receptor competitor assay kit, PanVera Co., Madison, Wis., P2816). Briefly, a cell lysate containing recombinantly expressed human full-length glucocorticoid receptor was mixed with a fluorescently labeled glucocorticoid (1 nM Fluormone GS1) in the presence or absence of test compound. After one hour at room temperature, the fluorescence polarization (FP) of the samples were measured.

[2] = test system: AP-1 induced transcriptional activity; assay: Cellular Transrepressional Assay (AP-1 luciferase reporter in A549 cells, PMA-activated); format: cell-based; conditions: A549 cells with 7x AP-1 luciferase reporter, 10 ng/ml PMA, read-out: AP-1 (EC50, nM) (Cellular Transrepression Assay)
Method in brief: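 Stable A549 AP-1 (7× sites) luciferase reporter line stimulated with 10 ng/ml PMA plus test molecules (0.1 nM to 40 μM) for 7 h. Luminescence read after 10 min with luciferase reagent; EC50 from % decrease of PMA-induced signal.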

[3] = target: T2, human glucocorticoid receptor (Homo sapiens, UniProt P04150); assay: Glucocorticoid Receptor Binding Assay (I), fluorescence polarization competitor kit (Fluormone GS Red); conditions: purified human recombinant full-length GR 2 nM, 1 nM Fluormone GS Red, FP; read-out: GR (Ki, nM) (GR Binding Assay (I))
T2 construct: purified human recombinant full-length glucocorticoid receptor (2 nM); purchased Invitrogen Part #2893
T2 sequence (P04150 1-777): T1 sequence (P04150 1-777)
Method: Briefly, purified human recombinant full-length glucocorticoid receptor (2 nM) was mixed with fluorescently labeled glucocorticoid (1 nM Fluormone GS Red) in the presence or absence of test compound. After two hour incubation at room temperature in the dark, the fluorescence polarization (FP) of the samples was measured. […] Test compounds were analyzed in the concentration range from 8.5E-05 μM to 5 μM.

**Q.** Which Ki [1] does the source give for `Cc1ccc(CC(c2ccc3c(cnn3-c3ccc(F)cc3)c2)C(C)(C)C(=O)Nc2nccs2)cc1` (stereo not shown) [Example 126, 3-(1-(4-fluorophenyl)-1H-indazol-5-yl)-2,2-dimethyl-N-(thiazol-2-yl)-4-p-tolylbutanamide] here?
**A.** Its Ki is 6.8 nM.

**Q.** What about the EC50 ([2]; Homo sapiens, A549, 7 h) of the same compound?
**A.** The EC50 was > 10000 nM.

**Q.** With `CC(C)(C(=O)Nc1nncs1)[C@@H](c1ccccc1)c1ccc2c(cnn2-c2ccc(F)cc2C#N)c1` [Example 97, (3S)-3-(1-(2-cyano-4-fluorophenyl)-1H-indazol-5-yl)-2,2-dimethyl-3-phenyl-N-(1,3,4-thiadiazol-2-yl)propanamide] as the compound, how does the Ki [1] read?
**A.** The Ki was 5.5 nM.

**Q.** What about the EC50 ([2]; Homo sapiens, A549, 7 h) of the same compound?
**A.** The EC50 was > 2500 nM.

**Q.** What does the source list for `CN(C)C(=O)c1cc(F)ccc1-n1ncc2cc([C@H](c3ccccc3)C(C)(C)C(=O)Nc3nncs3)ccc21` [Example 158, 2-(5-((S)-3-(1,3,4-Thiadiazol-2-ylamino)-2,2-dimethyl-3-oxo-1-phenylpropyl)-1H-indazol-1-yl)-5-fluoro-N,N-dimethylbenzamide]?
**A.** Ki [1]: 825 nM; EC50 ([2]; Homo sapiens, A549, 7 h): 2500 nM

**Q.** What does the source list for `CN(C)C(=O)Nc1cc(F)ccc1-n1ncc2cc([C@H](c3ccccc3)C(C)(C)C(=O)Nc3nncs3)ccc21` [Example 160, (3S)-3-(1-(2-(3,3-Dimethylureido)-4-fluorophenyl)-1H-indazol-5-yl)-2,2-dimethyl-3-phenyl-N-(1,3,4-thiadiazol-2-yl)propanamide]?
**A.** Ki [1]: 25 nM; EC50 ([2]; Homo sapiens, A549, 7 h): 234 nM

**Q.** Which Ki [1] does the source give for `Cc1ccccc1C(c1ccc2c(cnn2-c2ccc(F)cc2)c1)C(C)(C)C(=O)Nc1nncs1` (stereo not shown) [Example 49, 3-(1-(4-fluorophenyl)-1H-indazol-5-yl)-2,2-dimethyl-N-(1,3,4-thiadiazol-2-yl)-3-o-tolylpropanamide] here?
**A.** The Ki was 1.1 nM.

**Q.** And the EC50 ([2]; Homo sapiens, A549, 7 h)?
**A.** Its EC50 is 4.2 nM.

**Q.** What does the source list for `CC(C(=O)Nc1nncs1)C(c1ccccc1)c1ccc2[nH]ncc2c1` (single isomer, unassigned) [151-diast B, 3-(1H-Indazol-5-yl)-2-methyl-3-phenyl-N-(1,3,4-thiadiazol-2-yl)propanamide]?
**A.** Ki [1]: 283 nM; EC50 ([2]; 7 hours): 1740 nM

**Q.** What does the source list for `CC(C)(C(=O)NC1CCCC1O)C(Cc1ccccc1)c1ccc2c(cnn2-c2ccc(F)cc2)c1` (single isomer, unassigned) [Example 124-isomerB]?
**A.** Ki [1]: 2.3 nM; EC50 ([2]; 7 hours): > 10000 nM

**Q.** Which results are given for `CC(C)(C(=O)Nc1nncs1)[C@@H](c1ccccc1)c1ccc2c(cnn2-c2ccc(F)cc2N)c1` [Example 159, (3S)-3-(1-(2-Amino-4-fluorophenyl)-1H-indazol-5-yl)-2,2-dimethyl-3-phenyl-N-(1,3,4-thiadiazol-2-yl)propanamide]?
**A.** Ki [1]: 0.35 nM; EC50 ([2]; Homo sapiens, A549, 7 h): 73 nM

**Q.** How did the Ki [1] turn out when `Cc1cc2c(cnn2-c2ccc(F)cc2)cc1CC(C)C(=O)Nc1nncs1` (stereo not shown) [Example 106, 3-(1-(4-Fluorophenyl)-6-methyl-1H-indazol-5-yl)-2-methyl-N-(1,3,4-thiadiazol-2-yl)propanamide] was run?
**A.** Its Ki is 1 nM.

**Q.** What about the EC50 ([2]; Homo sapiens, A549, 7 h) of the same compound?
**A.** Its EC50 is 160 nM.

**Q.** For `CC(C)(C(=O)NC1CCCC1O)C(Cc1ccccc1)c1ccc2c(cnn2-c2ccc(F)cc2)c1` (single isomer, unassigned) [Example 124-isomerC], which Ki [1] is on record?
**A.** Its Ki is 2.1 nM.

**Q.** What about the EC50 ([2]; 7 hours) of the same compound?
**A.** The EC50 was 1250 nM.

**Q.** With `Cc1ccc(CC(c2ccc3c(cnn3-c3ccc(F)cc3)c2)C(C)(C)C(=O)NC2CCCC2O)cc1` (stereo not shown) [Example 125, 3-(1-(4-fluorophenyl)-1H-indazol-5-yl)-N-(2-hydroxycyclopentyl)-2,2-dimethyl-4-p-tolylbutanamide] as the compound, how does the Ki [1] read?
**A.** Its Ki is 9.9 nM.

**Q.** And the EC50 ([2]; Homo sapiens, A549, 7 h)?
**A.** Its EC50 is > 10000 nM.

**Q.** What does the source list for `COC(=O)c1ccc(-n2ncc3cc(C(c4ccccc4)C(C)(C)C(=O)Nc4nncs4)ccc32)cc1` (stereo not shown) [Example 88, methyl 4-(5-(3-(1,3,4-thiadiazol-2-ylamino)-2,2-dimethyl-3-oxo-1-phenylpropyl)-1H-indazol-1-yl)benzoate]?
**A.** Ki [1]: 26 nM; EC50 ([2]; Homo sapiens, A549, 7 h): > 10000 nM

**Q.** What does the source list for `COc1cccc(-n2ncc3cc(C(c4ccccc4)C(C)(C)C(=O)Nc4nncs4)ccc32)c1` (stereo not shown) [Example 94, 3-(1-(3-methoxyphenyl)-1H-indazol-5-yl)-2,2-dimethyl-3-phenyl-N-(1,3,4-thiadiazol-2-yl)propanamide]?
**A.** Ki [1]: 36 nM; EC50 ([2]; Homo sapiens, A549, 7 h): 1200 nM

**Q.** What does the source list for `CC(C)(C(=O)NC1CCC1)C(Cc1ccccc1)c1ccc2c(cnn2-c2ccc(F)cc2)c1` (stereo not shown) [Example 129, N-cyclobutyl-3-(1-(4-fluorophenyl)-1H-indazol-5-yl)-2,2-dimethyl-4-phenylbutanamide]?
**A.** Ki [1]: 0.87 nM; EC50 ([2]; Homo sapiens, A549, 7 h): 106 nM

**Q.** For `CC(C)=CC(c1ccc2c(cnn2-c2ccc(F)cc2)c1)C(C)(C)C(=O)Nc1nncs1` (stereo not shown) [Example 56, 3-(1-(4-fluorophenyl)-1H-indazol-5-yl)-2,2,5-trimethyl-N-(1,3,4-thiadiazol-2-yl)hex-4-enamide], which Ki [1] is on record?
**A.** Its Ki is 1.3 nM.

**Q.** What about the EC50 ([2]; Homo sapiens, A549, 7 h) of the same compound?
**A.** The EC50 was 4 nM.

**Q.** With `CC(C)/C=C(\c1ccc2c(cnn2-c2ccc(F)cc2)c1)C(C)(C)C(=O)Nc1nncs1` [Example 139, (E)-3-(1-(4-Fluorophenyl)-1H-indazol-5-yl)-2,2,5-trimethyl-N-(1,3,4-thiadiazol-2-yl)hex-3-enamide] as the compound, how does the Ki [1] read?
**A.** The Ki was 4.7 nM.

**Q.** What about the EC50 ([2]; Homo sapiens, A549, 7 h) of the same compound?
**A.** The EC50 was 2500 nM.

**Q.** Which results are given for `CCCC(C(=O)Nc1nncs1)C(c1ccccc1)c1ccc2c(cnn2-c2ccc(F)cc2)c1` (stereo not shown) [Example 143, 2-((1-(4-fluorophenyl)-1H-indazol-5-yl)(phenyl)methyl)-N-(1,3,4-thiadiazol-2-yl)pentanamide]?
**A.** Ki [1]: 1.7 nM; EC50 ([2]; Homo sapiens, A549, 7 h): 2 nM

**Q.** Which Ki [1] does the source give for `CCCC(c1ccc2c(cnn2-c2ccc(F)cc2)c1)C(C)(C)C(=O)Nc1nncs1` (stereo not shown) [Example 46, 3-(1-(4-fluorophenyl)-1H-indazol-5-yl)-2,2-dimethyl-N-(1,3,4-thiadazol-2-yl)hexanamide] here?
**A.** Its Ki is 1.7 nM.

**Q.** What about the EC50 ([2]; Homo sapiens, A549, 7 h) of the same compound?
**A.** The EC50 was 18 nM.

**Q.** `Cn1cnc(NC(=O)CC(c2ccccc2)c2ccc3c(cnn3-c3ccc(F)cc3)c2)n1` (stereo not shown) [Example 137, 3-(1-(4-Fluorophenyl)-1H-indazol-5-yl)-N-(1-methyl-1H-1,2,4-triazol-3-yl)-3-phenylpropanamide] was tested. Which Ki [1] did it give?
**A.** The Ki was 11 nM.

**Q.** What about the EC50 ([2]; Homo sapiens, A549, 7 h) of the same compound?
**A.** Its EC50 is 833 nM.

**Q.** `CC(C)(C(=O)NC1CCCC1)C(Cc1ccccc1)c1ccc2c(cnn2-c2ccc(F)cc2)c1` (single isomer, unassigned) [Example 130, N-cyclopentyl-3-(1-(4-fluorophenyl)-1H-indazol-5-yl)-2,2-dimethyl-4-phenylbutanamide] was tested. Which Ki [1] did it give?
**A.** Its Ki is 6.1 nM.

**Q.** And the EC50 ([2]; Homo sapiens, A549, 7 h)?
**A.** Its EC50 is > 10000 nM.

**Q.** How did the Ki [1] turn out when `CC(C)(C(=O)Nc1nncs1)[C@@H](c1ccccc1)c1ccc2c(cnn2-c2ccc(F)cc2C(=O)O)c1` [Example 157, 2-(5-((S)-3-(1,3,4-Thiadiazol-2-ylamino)-2,2-dimethyl-3-oxo-1-phenylpropyl)-1H-indazol-1-yl)-5-fluorobenzoic acid] was run?
**A.** The Ki was 634 nM.

**Q.** Which results are given for `CC(C)(C(=O)Nc1nncs1)C(c1ccccc1)c1ccc2c(cnn2-c2ccc(Cl)cc2)c1` (stereo not shown) [Example 93, 3-(1-(4-chlorophenyl)-1H-indazol-5-yl)-2,2-dimethyl-3-phenyl-N-(1,3,4-thiadiazol-2-yl)propanamide]?
**A.** Ki [3]: 18 nM; EC50 ([2]; Homo sapiens, A549, 7 h): 32 nM

**Q.** What does the source list for `CC(C)(C(=O)Nc1nccs1)C(c1ccccc1)c1ccc2[nH]cc(C#N)c2c1` (stereo not shown) [Example 108, 3-(3-Cyano-1H-indol-5-yl)-2,2-dimethyl-3-phenyl-N-(thiazol-2-yl)propanamide]?
**A.** Ki [3]: 6.6 nM; EC50 ([2]; Homo sapiens, A549, 7 h): 1200 nM

**Q.** What does the source list for `CC(C)(C(=O)Nc1nncs1)C(c1ccccc1)c1ccc2c(cnn2-c2ccncc2)c1` (stereo not shown) [Example 82, 2,2-dimethyl-3-phenyl-3-(1-(pyridin-4-yl)-1H-indazol-5-yl)-N-(1,3,4-thiadiazol-2-yl)propanamide]?
**A.** Ki [3]: 20 nM; EC50 ([2]; Homo sapiens, A549, 7 h): 491 nM

**Q.** Which Ki [3] does the source give for `CC(C)(C(=O)Nc1nccs1)C(c1ccccc1)c1ccc2c(cnn2CCO)c1` (stereo not shown) [Example 57, 3-(1-(2-hydrox-ethyl)-1H-indazol-5-yl)-2,2-dimethyl-3-phenyl-N-(thiazol-2-yl)propanamide] here?
**A.** Its Ki is 20 nM.

**Q.** What about the EC50 ([2]; Homo sapiens, A549, 7 h) of the same compound?
**A.** Its EC50 is 205 nM.
